Measurements taken from patent publication US9334263B2, “Compositions useful for treating disorders related to kit” (BLUEPRINT MEDICINES CORPORATION, priority 2013, dated 2016).
Entries after “also recorded” stand apart in the source; their conditions may differ.

What follows are molecules tested against T1, D816V Kit (Homo sapiens, UniProt P10721, D816V) (assay: Kit D816V assay at Km (Caliper electrophoretic mobility shift)). Settings: 15 uM ATP, 25 C, 90 minutes.
T1 construct: purchased Carna Bioscience 08-156
T1 sequence (P10721 26-976 D816V): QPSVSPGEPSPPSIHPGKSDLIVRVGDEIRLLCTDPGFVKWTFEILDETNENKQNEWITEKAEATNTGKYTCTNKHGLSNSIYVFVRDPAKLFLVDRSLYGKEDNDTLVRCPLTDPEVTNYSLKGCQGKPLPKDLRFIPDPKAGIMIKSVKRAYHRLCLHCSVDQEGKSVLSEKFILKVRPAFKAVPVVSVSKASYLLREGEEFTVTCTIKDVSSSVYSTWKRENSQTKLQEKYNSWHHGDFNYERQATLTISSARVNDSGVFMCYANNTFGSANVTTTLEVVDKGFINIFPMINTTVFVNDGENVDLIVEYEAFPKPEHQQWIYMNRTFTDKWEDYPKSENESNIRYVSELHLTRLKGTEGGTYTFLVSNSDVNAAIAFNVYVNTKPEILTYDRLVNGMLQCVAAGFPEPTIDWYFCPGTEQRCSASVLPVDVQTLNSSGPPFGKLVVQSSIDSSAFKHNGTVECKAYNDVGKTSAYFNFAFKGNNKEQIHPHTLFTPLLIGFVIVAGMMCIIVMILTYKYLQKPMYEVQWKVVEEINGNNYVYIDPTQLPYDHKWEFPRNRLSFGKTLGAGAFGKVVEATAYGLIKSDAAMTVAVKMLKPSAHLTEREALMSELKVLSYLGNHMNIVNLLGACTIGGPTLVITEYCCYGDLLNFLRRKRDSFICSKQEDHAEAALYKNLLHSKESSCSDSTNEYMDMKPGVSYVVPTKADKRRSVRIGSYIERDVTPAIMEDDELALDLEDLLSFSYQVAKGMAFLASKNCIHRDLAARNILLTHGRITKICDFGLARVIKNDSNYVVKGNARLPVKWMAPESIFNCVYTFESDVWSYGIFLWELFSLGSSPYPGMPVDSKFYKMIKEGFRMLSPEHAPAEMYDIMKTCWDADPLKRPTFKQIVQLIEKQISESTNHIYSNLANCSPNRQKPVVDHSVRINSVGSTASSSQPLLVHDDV
Format: biochemical
How it was run: (§1)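 Read-out is the ratio of phosphorylated to unphosphorylated fluorescent peptide, resolved by mobility shift on a Caliper EZ Reader 2.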

SMILES	IC50 [nM]
O[C@@H]1CCCN(c2ccc(Nc3ncnc(N4CCN(c5ncc(Cc6ccccc6)cn5)CC4)n3)cc2)C1 [Compound 165]	1.01 to 10
c1ccc(Cc2cnc(N3CCN(c4ncnc(Nc5cccc(C6CCCNC6)c5)n4)CC3)nc2)cc1 (centres unmarked) [Compound 98]	< 1
c1ccc(Cc2cnc(N3CCN(c4ncnc(Nc5cnn(C[C@H]6CNCCO6)c5)n4)CC3)nc2)cc1 [Compound 123]	< 1
Cn1cc(Nc2ncnc(N3CCN(c4ncc(Cc5ccccc5)cn4)CC3)n2)cn1 [Compound 10]	< 1
CN1CCc2ccc(Nc3ncnc(N4CCN(c5ncc(Cc6ccccc6)cn5)CC4)n3)cc2C1 [Compound 69]	< 1

Second part, the molecule after the results:

IC50 [nM]	SMILES
< 1	CN(C)[C@@H]1CCN(Cc2cccc(Nc3ncnc(N4CCN(c5ncc(Cc6ccccc6)cn5)CC4)n3)c2)C1 [Compound 261]
< 1	CC(C)N1CCc2ccc(Nc3ncnc(N4CCN(c5ncc(Cc6ccccc6)cn5)CC4)n3)cc2C1 [Compound 148]

The molecules below were run against T2, PDGFRA D842V (Homo sapiens, UniProt P16234, D842V) (assay: PDGFRA D842V assay at Km (Caliper electrophoretic mobility shift)). Settings: 15 uM ATP, 25 C, 90 minutes; read-out: PDFGRA D842V.
T2 construct: purchased ProQinase 0761-0000-1
T2 sequence (P16234 24-1089 D842V): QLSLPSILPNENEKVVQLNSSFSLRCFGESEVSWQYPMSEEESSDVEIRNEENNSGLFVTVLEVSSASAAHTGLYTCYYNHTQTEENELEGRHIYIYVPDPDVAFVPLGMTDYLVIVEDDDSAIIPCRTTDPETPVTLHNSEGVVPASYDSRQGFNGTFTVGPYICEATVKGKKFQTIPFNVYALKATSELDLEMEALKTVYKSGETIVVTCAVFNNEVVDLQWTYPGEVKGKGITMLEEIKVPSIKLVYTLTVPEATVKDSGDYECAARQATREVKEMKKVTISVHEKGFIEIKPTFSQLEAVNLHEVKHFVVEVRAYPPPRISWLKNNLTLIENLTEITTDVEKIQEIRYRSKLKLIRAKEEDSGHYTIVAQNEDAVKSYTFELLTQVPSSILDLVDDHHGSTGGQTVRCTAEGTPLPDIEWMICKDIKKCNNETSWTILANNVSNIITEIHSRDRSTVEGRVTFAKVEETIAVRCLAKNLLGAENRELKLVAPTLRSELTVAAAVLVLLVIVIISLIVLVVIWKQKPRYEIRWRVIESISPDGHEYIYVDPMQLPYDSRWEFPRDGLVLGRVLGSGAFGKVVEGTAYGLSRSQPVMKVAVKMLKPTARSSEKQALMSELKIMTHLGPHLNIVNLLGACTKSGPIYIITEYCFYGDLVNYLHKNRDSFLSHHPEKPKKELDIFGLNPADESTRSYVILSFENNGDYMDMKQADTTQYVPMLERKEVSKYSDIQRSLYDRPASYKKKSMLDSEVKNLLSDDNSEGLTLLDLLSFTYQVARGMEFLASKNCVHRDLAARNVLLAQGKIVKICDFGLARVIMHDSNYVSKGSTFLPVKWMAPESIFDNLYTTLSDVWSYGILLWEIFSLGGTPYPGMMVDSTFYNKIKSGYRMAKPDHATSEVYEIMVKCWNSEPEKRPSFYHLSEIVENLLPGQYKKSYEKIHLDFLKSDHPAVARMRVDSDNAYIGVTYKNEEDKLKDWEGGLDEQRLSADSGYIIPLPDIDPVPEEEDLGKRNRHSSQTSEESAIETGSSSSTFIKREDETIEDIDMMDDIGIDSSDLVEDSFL
Format: biochemical
Method: In order to assess the activity of chemical compounds against the relevant kinase of interest, the Caliper LifeSciences electrophoretic mobility shift technology platform is used. Fluorescently labeled substrate peptide is incubated in the presence of kinase and ATP so that a […] proportion of the peptide is phosphorylated. At the end of the reaction, the mix of phosphorylated (product) and non-phosphorylated (substrate) peptides are passed through the microfluidic system of the Caliper EZ Reader 2, under an applied potential difference. The presence of the phosphate group on the product peptide provides a difference in mass and charge between those of the substrate peptide, resulting in a separation of the substrate and product pools in the sample. As the pools pass a LEDS within the instrument, these pools are detected and resolved as separate peaks. The ratio between these peaks therefore reflects the activity of the chemical matter at that concentration in that well, under those conditions.
The reaction was stopped by the addition of 70 ul of Stop buffer (100 mM HEPES pH 7.5, 0.015% Brij 35, 35 mM EDTA and 0.2% of Coating Reagent 3 (Caliper Lifesciences)). The plate was then read on a Caliper EZReader 2 (protocol settings: −1.9 psi, upstream voltage −500, downstream voltage −3000, post sample sip 38 s).

SMILES	IC50 [nM]
O[C@@H]1CCCN(c2ccc(Nc3ncnc(N4CCN(c5ncc(Cc6ccccc6)cn5)CC4)n3)cc2)C1 [Compound 165]	1.01 to 10
c1ccc(Cc2cnc(N3CCN(c4ncnc(Nc5cccc(C6CCCNC6)c5)n4)CC3)nc2)cc1 (centres unmarked) [Compound 98]	< 1
c1ccc(Cc2cnc(N3CCN(c4ncnc(Nc5cnn(C[C@H]6CNCCO6)c5)n4)CC3)nc2)cc1 [Compound 123]	< 1
Cn1cc(Nc2ncnc(N3CCN(c4ncc(Cc5ccccc5)cn4)CC3)n2)cn1 [Compound 10]	1.01 to 10
CN1CCc2ccc(Nc3ncnc(N4CCN(c5ncc(Cc6ccccc6)cn5)CC4)n3)cc2C1 [Compound 69]	< 1

Other lines, results leading:

IC50 [nM]	SMILES
< 1	CN(C)[C@@H]1CCN(Cc2cccc(Nc3ncnc(N4CCN(c5ncc(Cc6ccccc6)cn5)CC4)n3)c2)C1 [Compound 261]
< 1	CC(C)N1CCc2ccc(Nc3ncnc(N4CCN(c5ncc(Cc6ccccc6)cn5)CC4)n3)cc2C1 [Compound 148]

The molecules below were run against T3, wild type Kit (Homo sapiens, UniProt P10721) (assay: Kit wild type assay at Km (Caliper electrophoretic mobility shift)). Settings: 400 uM ATP, 25 C, 90 minutes; read-out: WT KIT.
T3 construct: purchased Carna Bioscience 08-156
T3 sequence (P10721 26-976): as the sequence (P10721 26-976 D816V) above, with V791D counted along it
Format: biochemical
How it was run: as §1

SMILES	IC50 [nM]
O[C@@H]1CCCN(c2ccc(Nc3ncnc(N4CCN(c5ncc(Cc6ccccc6)cn5)CC4)n3)cc2)C1 [Compound 165]	100 to 1000
c1ccc(Cc2cnc(N3CCN(c4ncnc(Nc5cccc(C6CCCNC6)c5)n4)CC3)nc2)cc1 (centres unmarked) [Compound 98]	< 10
c1ccc(Cc2cnc(N3CCN(c4ncnc(Nc5cnn(C[C@H]6CNCCO6)c5)n4)CC3)nc2)cc1 [Compound 123]	< 10
Cn1cc(Nc2ncnc(N3CCN(c4ncc(Cc5ccccc5)cn4)CC3)n2)cn1 [Compound 10]	11 to 100
CN1CCc2ccc(Nc3ncnc(N4CCN(c5ncc(Cc6ccccc6)cn5)CC4)n3)cc2C1 [Compound 69]	< 10

Now from value to molecule:

IC50 [nM]	SMILES
< 10	CN(C)[C@@H]1CCN(Cc2cccc(Nc3ncnc(N4CCN(c5ncc(Cc6ccccc6)cn5)CC4)n3)c2)C1 [Compound 261]
< 10	CC(C)N1CCc2ccc(Nc3ncnc(N4CCN(c5ncc(Cc6ccccc6)cn5)CC4)n3)cc2C1 [Compound 148]

The molecules below were run against T4, Kit D816V (HMC1.2 cells, Kit V560G and D816V) (Homo sapiens, UniProt P10721, D816V/V560G) (assay: HMC1.2 autophosphorylation assay (AlphaLISA, phospho-Y719 c-Kit)). Settings: Kit autophosphorylation at tyrosine 719, 90 minutes, read-out: Cellular Activity.
T4 construct: endogenous in cells; host or cells: HMC1.2 cells
T4 sequence (P10721 26-976 V560G/D816V): as the sequence (P10721 26-976 D816V) above, with V535G counted along it
Format: cell-based
How it was run: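 AlphaScreen signal comes from lysed HMC1.2 cells incubated with phospho-Y719 and total c-Kit antibodies (15 nM final), acceptor beads and then streptavidin donor beads, 2 h each at room temperature. Beforehand, cells deprived of serum overnight received compound for 90 min as a 10-point series, 25 uM–95.4 pM, 0.25% DMSO.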

SMILES	IC50 [nM]
O[C@@H]1CCCN(c2ccc(Nc3ncnc(N4CCN(c5ncc(Cc6ccccc6)cn5)CC4)n3)cc2)C1 [Compound 165]	10 to 100
c1ccc(Cc2cnc(N3CCN(c4ncnc(Nc5cccc(C6CCCNC6)c5)n4)CC3)nc2)cc1 (centres unmarked) [Compound 98]	10 to 100
c1ccc(Cc2cnc(N3CCN(c4ncnc(Nc5cnn(C[C@H]6CNCCO6)c5)n4)CC3)nc2)cc1 [Compound 123]	< 10
Cn1cc(Nc2ncnc(N3CCN(c4ncc(Cc5ccccc5)cn4)CC3)n2)cn1 [Compound 10]	100 to 1000
CN1CCc2ccc(Nc3ncnc(N4CCN(c5ncc(Cc6ccccc6)cn5)CC4)n3)cc2C1 [Compound 69]	< 10

Further lines, results first:

IC50 [nM]	SMILES
10 to 100	CN(C)[C@@H]1CCN(Cc2cccc(Nc3ncnc(N4CCN(c5ncc(Cc6ccccc6)cn5)CC4)n3)c2)C1 [Compound 261]
10 to 100	CC(C)N1CCc2ccc(Nc3ncnc(N4CCN(c5ncc(Cc6ccccc6)cn5)CC4)n3)cc2C1 [Compound 148]

The molecules below were run on P815 tumor cells (assay: P815 mastocytoma xenograft model). Settings: female BALB/c nude mice, P815 s.c., p.o. BID x 10.
Format: in vivo, mouse
Method: Compound 165 and Dasatinib were evaluated in a P815 mastocytoma xenograft model. P815 tumor cells (ATCC, Manassas, Va., cat # ATCC® TIB-64) were maintained in vitro as a suspension and monolayer culture in RPMI1640 medium supplemented with 10% fetal calf serum at 37° C. in an atmosphere of 5% CO2 in air. The tumor cells were sub-cultured twice weekly by trypsin-EDTA treatment. The cells growing in an exponential growth phase were harvested and counted for tumor inoculation.
Tumor sizes were measured every other day in two dimensions using a caliper, and the volume was expressed in mm^3 using the formula: V=0.5 a×b^2 where a and b were the long and short diameters of the tumor, respectively. […] T-C was calculated with T as the median time (in days) required for the treatment group tumors to reach a predetermined size (e.g., 1000 mm^3), and C as the median time (in days) for the control group tumors to reach the same size. […]
TGI was calculated for each group using the formula: TGI (%)=[1−(Ti−T0)/(Vi−V0)]×100; Ti is the average tumor volume of a treatment group on a given day, T0 is the average tumor volume of the treatment group on the day of treatment start, Vi is the average tumor volume of the vehicle control group on the same day with Ti, and V0 is the average tumor volume of the vehicle group on the day of treatment start. Tumor weight was measured at the endpoint. […]

SMILES	tumor growth inhibition / antitumor activity
O[C@@H]1CCCN(c2ccc(Nc3ncnc(N4CCN(c5ncc(Cc6ccccc6)cn5)CC4)n3)cc2)C1 [Compound 165]	effective in inhibiting tumor growth; also recorded: observable antitumor activity
